Source: patent US7601716B2, “Pyridopyrazines and derivatives thereof as ALK and c-Met inhibitors” (Cephalon, Inc., priority 2006, dated 2009)
Counter-ions that a name gives are not always drawn. Each block holds one molecule with its values, some of them ahead of it.

Legend:
[1] = target: baculovirus-expressed ALK (Homo sapiens, UniProt Q9UM73); assay: ALK Kinase Assay (ELISA/TRF, PLC-γ substrate); assay type: biochemical; settings: read-out: ALK Kinase Inhibition (IC50); further: 1 µM ATP (Km level)
Sequence of baculovirus-expressed ALK (Q9UM73 19-1620): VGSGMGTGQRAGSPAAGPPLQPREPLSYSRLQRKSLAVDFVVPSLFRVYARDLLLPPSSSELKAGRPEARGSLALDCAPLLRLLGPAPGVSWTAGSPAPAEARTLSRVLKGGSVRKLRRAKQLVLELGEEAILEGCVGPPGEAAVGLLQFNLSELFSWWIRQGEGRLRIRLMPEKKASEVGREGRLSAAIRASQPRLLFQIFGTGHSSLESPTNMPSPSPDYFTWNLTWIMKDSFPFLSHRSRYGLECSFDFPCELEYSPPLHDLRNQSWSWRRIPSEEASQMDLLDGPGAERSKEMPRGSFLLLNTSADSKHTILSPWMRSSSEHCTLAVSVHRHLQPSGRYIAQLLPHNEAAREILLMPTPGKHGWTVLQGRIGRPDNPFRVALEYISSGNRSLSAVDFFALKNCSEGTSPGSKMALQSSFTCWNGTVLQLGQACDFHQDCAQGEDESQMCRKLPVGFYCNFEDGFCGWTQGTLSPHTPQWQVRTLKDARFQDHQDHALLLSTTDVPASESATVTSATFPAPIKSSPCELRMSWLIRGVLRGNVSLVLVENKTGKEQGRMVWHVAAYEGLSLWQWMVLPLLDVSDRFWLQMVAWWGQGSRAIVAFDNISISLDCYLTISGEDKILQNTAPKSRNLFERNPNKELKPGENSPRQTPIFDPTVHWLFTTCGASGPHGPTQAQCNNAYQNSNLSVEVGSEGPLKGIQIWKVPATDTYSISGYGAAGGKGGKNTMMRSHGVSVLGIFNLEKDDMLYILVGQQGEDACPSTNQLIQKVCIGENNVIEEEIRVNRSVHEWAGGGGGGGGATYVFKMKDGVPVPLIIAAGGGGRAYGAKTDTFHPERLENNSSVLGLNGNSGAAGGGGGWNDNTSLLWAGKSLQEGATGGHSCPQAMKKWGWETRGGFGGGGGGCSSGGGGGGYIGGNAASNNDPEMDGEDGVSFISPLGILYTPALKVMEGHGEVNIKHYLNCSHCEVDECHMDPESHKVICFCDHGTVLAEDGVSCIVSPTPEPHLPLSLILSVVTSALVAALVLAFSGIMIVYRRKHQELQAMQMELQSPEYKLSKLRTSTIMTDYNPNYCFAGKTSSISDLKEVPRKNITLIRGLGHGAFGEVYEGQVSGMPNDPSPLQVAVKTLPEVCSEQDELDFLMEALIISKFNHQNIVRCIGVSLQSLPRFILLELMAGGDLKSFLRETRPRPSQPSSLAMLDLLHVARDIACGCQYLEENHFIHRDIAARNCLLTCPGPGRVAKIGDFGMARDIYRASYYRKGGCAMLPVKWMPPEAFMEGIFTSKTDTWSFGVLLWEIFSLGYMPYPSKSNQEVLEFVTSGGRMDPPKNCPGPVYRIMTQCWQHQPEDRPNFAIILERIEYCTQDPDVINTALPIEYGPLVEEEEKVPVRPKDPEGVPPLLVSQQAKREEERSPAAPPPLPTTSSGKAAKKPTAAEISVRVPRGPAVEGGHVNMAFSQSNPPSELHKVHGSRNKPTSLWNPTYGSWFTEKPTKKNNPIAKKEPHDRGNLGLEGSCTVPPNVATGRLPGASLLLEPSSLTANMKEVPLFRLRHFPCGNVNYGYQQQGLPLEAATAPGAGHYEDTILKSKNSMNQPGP
Method in brief: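 IC50 values fitted by nonlinear sigmoidal regression (variable slope) of percent inhibition against log compound concentration. Read-out was TRF of Eu-N1 anti-phosphotyrosine antibody bound to phosphorylated, plate-coated GST-PLC-γ (10 µg/mL). Kinase reaction used ALK at 30 ng/ml for 15 min at 37 °C.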

[2] = target: T1, c-Met (cytoplasmic domain) (Homo sapiens, UniProt P08581); assay: c-Met Kinase Assay (ELISA/TRF, PLC-γ substrate); assay type: biochemical; settings: 3 μM ATP (Km level); read-out: c-Met Kinase Inhibition (IC50)
T1 construct: Reactions were initiated with 30 ng/mL c-Met (cytoplasmic domain, Invitrogen Corporation #PV3143); purchased Invitrogen Corporation PV3143
T1 sequence (P08581 956-1390 limits assumed): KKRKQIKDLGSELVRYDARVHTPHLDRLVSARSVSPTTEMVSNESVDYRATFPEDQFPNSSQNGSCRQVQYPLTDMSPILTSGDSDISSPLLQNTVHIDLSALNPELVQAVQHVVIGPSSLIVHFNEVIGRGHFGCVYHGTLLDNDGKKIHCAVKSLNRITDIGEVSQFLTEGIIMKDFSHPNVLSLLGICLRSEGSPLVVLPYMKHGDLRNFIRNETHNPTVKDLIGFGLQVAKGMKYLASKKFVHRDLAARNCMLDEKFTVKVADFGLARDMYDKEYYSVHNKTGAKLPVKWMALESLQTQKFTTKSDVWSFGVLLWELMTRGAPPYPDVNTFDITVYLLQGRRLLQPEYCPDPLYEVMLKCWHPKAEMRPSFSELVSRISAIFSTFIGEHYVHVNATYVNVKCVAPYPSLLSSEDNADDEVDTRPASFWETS
Description: Example compounds were tested for their ability to inhibit the kinase activity of baculovirus-expressed ALK using a modification of the ELISA protocol reported for trkA in Angeles, T. S. et al., Anal. Biochem. 1996, 236, 49-55, which is incorporated herein by reference in its entirety. Phosphorylation of the substrate, phospholipase C-gamma (PLC-γ) generated as a fusion protein with glutathione S-transferase (GST) as reported in Rotin, D. et al., EMBO J. 1992, 11, 559-567, which is incorporated herein by reference in its entirety, was detected with a europium-labeled anti-phosphotyrosine antibody and measured by time-resolved fluorescence (TRF). Briefly, each 96-well plate was coated with 100 μL/well of 10 μg/mL substrate (phospholipase C-γ) in Tris-buffered saline (TBS). […] The reaction was initiated by adding enzyme (30 ng/ml ALK) and was allowed to proceed at 37° C. for 15 minutes. Detection of the phosphorylated product was performed by adding 100 μl/well of Eu-N1 labeled PT66 antibody (Perkin Elmer # AD0041). Incubation at 37° C. then proceeded for one (1) hour, followed by addition of 100 μL enhancement solution (Wallac #1244-105). The plate was gently agitated and after thirty minutes, the fluorescence of the resulting solution was measured using the EnVision 2100 (or 2102) multilabel plate reader (Perkin Elmer).
Data analysis was performed using ActivityBase (IDBS, Guilford, UK). IC50 values were calculated by plotting percent inhibition versus log10 of the concentration of compound and fitting to the nonlinear regression sigmoidal dose-response (variable slope) equation in XLFit (IDBS, Guilford, UK).
Reactions were initiated with 30 ng/mL c-Met (cytoplasmic domain, Invitrogen Corporation #PV3143).

IC50 [1]: 1 to 10 µM
IC50 [2]: > 100 µM
SMILES: O=C(c1cnc2c(c1)N(Cc1cc(Cl)ccc1Cl)CCN2)N1CCCC1c1cccnc1 (centres unmarked) [Example 264, [1-(2,5-Dichlorobenzyl)-1,2,3,4-tetrahydropyrido[2,3-b]pyrazin-7-yl]-(2-pyridin-3-yl-pyrrolidin-1-yl)methanone]

IC50 [1]: 1 to 10 µM
IC50 [2]: 1 to 10 µM
SMILES: O=C(c1cnc2c(c1)N(Cc1cc(Cl)ccc1Cl)CCN2)N1CCN(CCc2ccccn2)CC1 [Example 229, [1-(2,5-Dichlorobenzyl)-1,2,3,4-tetrahydropyrido[2,3-b]pyrazin-7-yl]-[4-(2-pyridin-2-yl-ethyl)piperazin-1-yl]methanone]

IC50 [1]: 10 to 100 µM
IC50 [2]: 10 to 100 µM
SMILES: O=C(NCC(c1ccccc1)c1ccccc1)c1cnc2c(c1)N(Cc1cc(Cl)ccc1Cl)CCN2 [Example 226, 1-(2,5-Dichlorobenzyl)-1,2,3,4-tetrahydropyrido[2,3-b]pyrazine-7-carboxylic acid (2,2-diphenylethyl)amide]

IC50 [1]: 1 to 10 µM
IC50 [2]: > 100 µM
SMILES: O=C(NCc1ccncc1)c1cnc2c(c1)N(Cc1cc(Cl)ccc1Cl)CCN2 [Example 234, 1-(2,5-Dichlorobenzyl)-1,2,3,4-tetrahydropyrido[2,3-b]pyrazine-7-carboxylic acid (pyridin-4-ylmethyl)amide]

IC50 [1]: 1 to 10 µM
IC50 [2]: > 100 µM
SMILES: O=C(NCc1ccccc1Cl)c1cnc2c(c1)N(Cc1cc(Cl)ccc1Cl)CCN2 [Example 256, 1-(2,5-Dichlorobenzyl)-1,2,3,4-tetrahydropyrido[2,3-b]pyrazine-7-carboxylic acid 2-chloro-benzylamide]

IC50 [1]: 10 to 100 µM
IC50 [2]: 10 to 100 µM
SMILES: O=C(c1cnc2c(c1)N(Cc1cc(Cl)ccc1Cl)CCN2)N1CCC(Cc2ccccc2)CC1 [Example 215, (4-Benzylpiperidin-1-yl)-[1-(2,5-dichlorobenzyl)-1,2,3,4-tetrahydropyrido[2,3-b]pyrazin-7-yl]methanone]

IC50 [1]: 1 to 10 µM
IC50 [2]: > 100 µM
SMILES: O=C(NC1Cc2ccccc2C1)c1cnc2c(c1)N(Cc1cc(Cl)ccc1Cl)CCN2 [Example 259, 1-(2,5-Dichlorobenzyl)-1,2,3,4-tetrahydropyrido[2,3-b]pyrazine-7-carboxylic acid indan-2-ylamide]

IC50 [1]: 0.1 to 1 µM
IC50 [2]: > 100 µM
SMILES: O=C(NCCc1cccs1)c1cnc2c(c1)N(Cc1cc(Cl)ccc1Cl)CCN2 [Example 232, 1-(2,5-Dichlorobenzyl)-1,2,3,4-tetrahydropyrido[2,3-b]pyrazine-7-carboxylic acid (2-thiophen-2-yl-ethyl)amide]

IC50 [1]: 1 to 10 µM
IC50 [2]: > 100 µM
SMILES: O=C(NCCc1ccccn1)c1cnc2c(c1)N(Cc1cc(Cl)ccc1Cl)CCN2 [Example 223, 1-(2,5-Dichlorobenzyl)-1,2,3,4-tetrahydropyrido[2,3-b]pyrazine-7-carboxylic acid (2-pyridin-2-yl-ethyl)amide]

IC50 [1]: 1 to 10 µM
IC50 [2]: > 100 µM
SMILES: O=C(NCc1csc(-c2ccccc2)n1)c1cnc2c(c1)N(Cc1cc(Cl)ccc1Cl)CCN2 [Example 242, 1-(2,5-Dichlorobenzyl)-1,2,3,4-tetrahydropyrido[2,3-b]pyrazine-7-carboxylic acid (2-phenylthiazol-4-yl-methyl)amide]

IC50 [1]: 1 to 10 µM
IC50 [2]: > 100 µM
SMILES: O=C(NCc1ccc(OC(F)(F)F)cc1)c1cnc2c(c1)N(Cc1cc(Cl)ccc1Cl)CCN2 [Example 230, 1-(2,5-Dichlorobenzyl)-1,2,3,4-tetrahydropyrido[2,3-b]pyrazine-7-carboxylic acid 4-(trifluoromethoxy)benzylamide]

IC50 [1]: 1 to 10 µM
IC50 [2]: > 100 µM
SMILES: O=C(c1cnc2c(c1)N(Cc1cc(Cl)ccc1Cl)CCN2)N1CCN(c2ncccn2)CC1 [Example 207, [1-(2,5-Dichlorobenzyl)-1,2,3,4-tetrahydropyrido[2,3-b]pyrazin-7-yl]-(4-pyrimidin-2-yl-piperazin-1-yl)-methanone]

Continued, molecule first:

SMILES: CN(C)CCCCNC(=O)c1ccc(-c2cnc3c(c2)N(Cc2ccccc2)C(=O)CN3)cc1 [Example 15, 4-(1-Benzyl-2-oxo-1,2,3,4-tetrahydropyrido[2,3-b]pyrazin-7-yl)-N-(4-dimethylaminobutyl)benzamide, trifluoroacetic acid salt]
IC50 [1]: 1 to 10 µM
IC50 [2]: 10 to 100 µM

SMILES: Clc1cccc(OC2CCNc3ncc(Br)cc32)c1 (centres unmarked) [Example 271, 6-Bromo-4-(3-chlorophenoxy)-1,2,3,4-tetrahydro-[1,8]naphthyridine]
IC50 [1]: > 100 µM
IC50 [2]: 10 to 100 µM

SMILES: O=C1CNc2ncc(-c3ccc(NS(=O)(=O)CCN4CCC[C@H]4CN4CCCC4)cc3)cc2N1Cc1cc(F)ccc1F [Example 49]
IC50 [1]: 0.1 to 1 µM
IC50 [2]: 10 to 100 µM

SMILES: FC(F)(F)c1ccc(Cl)cc1CN1CCNc2ncc(-c3cc[nH]c3)cc21 [Example 202, 1-[5-Chloro-2-(trifluoromethyl)benzyl]-7-(1H-pyrrol-3-yl)-1,2,3,4-tetrahydro-pyrido[2,3-b]pyrazine]
IC50 [1]: 0.1 to 1 µM
IC50 [2]: 10 to 100 µM

SMILES: O=C(c1ccc(-c2cnc3c(c2)N(Cc2ccccc2)C(=O)CN3)cc1)N1CCC(N2CCCC2)CC1 [Example 26, 1-Benzyl-7-[4-(4-(pyrrolidin-1-yl)piperidine-1-carbonyl)phenyl]-3,4-dihydro-1H-pyrido[2,3-b]pyrazin-2-one, trifluoroacetic acid salt]
IC50 [1]: 1 to 10 µM
IC50 [2]: 10 to 100 µM

SMILES: CC(c1cc(F)ccc1F)N1CCNc2ncc(I)cc21 (centres unmarked) [Example 153, 1-[1-(2,5-Difluorophenyl)ethyl]-7-iodo-1,2,3,4-tetrahydropyrido[2,3-b]pyrazine]
IC50 [1]: > 100 µM
IC50 [2]: > 100 µM

SMILES: O=C(c1cc(F)ccc1F)N1CCNc2ncc(-c3ccc(C(=O)N4CCC[C@H]4CN4CCCC4)cc3)cc21 [Example 89, (2,5-Difluorophenyl)-{7-[4-((S)-2-[(pyrrolidin-1-yl)methyl]pyrrolidine-1-carbonyl)phenyl]-3,4-dihydro-2H-pyrido[2,3-b]pyrazin-1-yl}-methanone]
IC50 [1]: 10 to 100 µM
IC50 [2]: 10 to 100 µM

SMILES: CC(C)(C)OC(=O)NCC#Cc1cnc2c(c1)N(Cc1c(Cl)cccc1Cl)CCN2 [Example 170, {3-[1-(2,6-Dichlorobenzyl)-1,2,3,4-tetrahydropyrido[2,3-b]pyrazin-7-yl]prop-2-ynyl}carbamic acid tert-butyl ester]
IC50 [1]: 1 to 10 µM
IC50 [2]: > 100 µM

SMILES: FC(F)(F)c1ccc(CN2CCNc3ncc(-c4ccc(N5CCOCC5)nc4)cc32)o1 [Example 292, 7-(6-Morpholin-4-yl-pyridin-3-yl)-1-[5-(trifluoromethyl)furan-2-ylmethyl]-1,2,3,4-tetrahydropyrido[2,3-b]pyrazine]
IC50 [1]: 1 to 10 µM
IC50 [2]: > 100 µM

SMILES: O=C(NCCCN1CCOCC1)c1ccc(-c2cnc3c(c2)N(Cc2ccccc2)C(=O)CN3)cc1 [Example 14, 4-(1-Benzyl-2-oxo-1,2,3,4-tetrahydropyrido[2,3-b]pyrazin-7-yl)-N-(3-morpholin-4-yl-propyl)benzamide, trifluoroacetic acid salt]
IC50 [1]: 10 to 100 µM
IC50 [2]: > 100 µM

SMILES: O=C(c1cc(F)ccc1F)N1CCNc2ncc(I)cc21 [Example 87, (2,5-Difluorophenyl)-(7-iodo-3,4-dihydro-2H-pyrido[2,3-b]pyrazin-1-yl)methanone]
IC50 [1]: > 100 µM
IC50 [2]: > 100 µM

SMILES: O=C(Cc1ccccc1)N1CCNc2ncc(I)cc21 [Example 110, 1-(7-Iodo-3,4-dihydro-2H-pyrido[2,3-b]pyrazin-1-yl)-2-phenylethanone]
IC50 [1]: > 100 µM
IC50 [2]: 10 to 100 µM

SMILES: O=C(c1ccc(-c2cnc3c(c2)N(Cc2ccccc2OC(F)(F)F)CCN3)cc1)N1CCC(N2CCCC2)CC1 [Example 305, (4-Pyrrolidin-1-yl-piperidin-1-yl)-(4-{1-[2-(trifluoromethoxy)benzyl]-1,2,3,4-tetrahydropyrido[2,3-b]pyrazin-7-yl}phenyl)methanone]
IC50 [1]: < 0.1 µM
IC50 [2]: 1 to 10 µM

SMILES: CC(c1c(F)ccc(F)c1Cl)N1C(=O)CNc2ncc(I)cc21 (centres unmarked) [Example 175, 1-[1-(2-Chloro-3,6-difluorophenyl)ethyl]-7-iodo-3,4-dihydro-1H-pyrido[2,3-b]pyrazin-2-one]
IC50 [1]: > 100 µM
IC50 [2]: > 100 µM

SMILES: O=S(=O)(c1ccccc1)N1CCNc2ncc(I)cc21 [Example 123, 1-Benzenesulfonyl-7-iodo-1,2,3,4-tetrahydropyrido[2,3-b]pyrazine]
IC50 [1]: 10 to 100 µM
IC50 [2]: 10 to 100 µM

SMILES: O=C(O)c1cccc(-c2cnc3c(c2)N(Cc2cc(Cl)ccc2C(F)(F)F)CCN3)c1 [Example 196, 3-{1-[5-Chloro-2-(trifluoromethyl)benzyl]-1,2,3,4-tetrahydropyrido[2,3-b]pyrazin-7-yl}benzoic acid]
IC50 [1]: 1 to 10 µM
IC50 [2]: 10 to 100 µM
